From paper PMC11246588, “New 1,2,4-oxadiazole derivatives as potential multifunctional agents for the treatment of Alzheimer’s disease: design, synthesis, and biological evaluation” (BMC Chemistry, 2024) come the findings set out here.

Where a name gives a salt, the structure may show the parent alone. Read-outs that look alike come from different tables or passages of the source.

One assay has as its target T1, MAO-B (Homo sapiens, UniProt P27338).
T1 construct: purchased Sigma M7441
T1 sequence (P27338 1-520): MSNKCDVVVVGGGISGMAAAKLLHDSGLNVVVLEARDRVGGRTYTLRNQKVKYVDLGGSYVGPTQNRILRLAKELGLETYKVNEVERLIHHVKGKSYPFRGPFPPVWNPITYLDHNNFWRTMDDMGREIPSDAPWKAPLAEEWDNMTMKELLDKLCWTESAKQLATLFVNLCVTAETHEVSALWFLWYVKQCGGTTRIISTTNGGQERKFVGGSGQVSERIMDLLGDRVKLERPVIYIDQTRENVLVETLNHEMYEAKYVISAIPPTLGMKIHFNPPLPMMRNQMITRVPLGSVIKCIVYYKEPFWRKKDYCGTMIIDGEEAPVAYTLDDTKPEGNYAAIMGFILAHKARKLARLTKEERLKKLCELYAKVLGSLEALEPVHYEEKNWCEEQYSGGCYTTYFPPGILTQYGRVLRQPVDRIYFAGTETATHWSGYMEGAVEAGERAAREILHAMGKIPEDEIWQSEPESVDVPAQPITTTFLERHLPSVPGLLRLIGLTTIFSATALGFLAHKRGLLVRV
Nature of the assay: MAO-B inhibitory assay. It is filed as biochemical.

The nature of assay [1]: DPPH radical scavenging activity. Particulars: means of three replicates; N.A. means no activity; read-out: DPPH-IC50 (µM ± SD).
The next assay concerns the target T2, AChE (Homo sapiens, UniProt P22303).
T2 construct: from tissue; host or cells: brain homogenate supernatant
Briefly: AChE inhibitory assay (Ellman-type, brain homogenate supernatant). Type of assay: biochemical. Particulars: for AChE-IC50 (µM ± SD) / IC50: means of three replicates, N.A. means no activity; for IC50: read-out: AChE-IC50 (µM ± SD); for AChE Selectivity Index: IC50 of BuChE/ IC50 of AChE. As to the method:
The results, which are shown in Table 1, are graphically represented in Figs. 2 and 3. […]
3.1. AChE and BuChE inhibitory assays
In ELISA plate (Bio Tec. USA), 150 μL of phosphate buffer was directly added in ELISA blank well and 130 μL of phosphate buffer was added in ELISA activity wells. To the blank and activity wells, 5 μL of substrate ACTI was added, then 20 μL brain homogenate supernatant was added in activity ELISA wells only. The plate was preincubated for 15 min at 37 °C before the addition of the second substrate (DTNB). DTNB (60 μL) was added in both the blank and activity wells. Absorbance was […]
Values obtained were analyzed and blank reading was subtracted from sample readings. The AChE and BuChE inhibition activity of tested compound was expressed as IC 50. IC50 value is the inhibitory concentration at which 50% of AChE or BuChE is repressed. […]
sample concentration using linear regression equations.
For orientation: DTNB colorimetry detects thiols as they appear.

Assay [2] concerns human red blood cells (HRBCs). Briefly: Anti-hemolytic effect (hypotonic solution-induced human erythrocyte hemolysis). Type of assay: cell-based. The following applies: read-out: Hemolysis-IC50 (µM ± SD). As to the method:
The inhibition of human red blood cells (HRBCs) membrane lysis under […] conditions was taken as a measure of the mechanism of anti-hemolytic activity of the synthesized 1,2,4-oxadiazole-based derivatives. […]
The test carried out triplicate. […]
It was calculated by interpolation from the graph of inhibition percentage against sample concentration using linear regression equations.
The Inhibition percentage was calculated. IC50 value is the […]
centrifugation each time for 10 min at 3000 ×g. […]
solution-induced human erythrocyte hemolysis. […]
consisted of 0.5 mL of RBCs mixed with hypotonic-buffered saline solution alone. The mixtures were incubated for 10 min at room temperature and centrifuged for 10 min at 3000 ×g and the absorbance of the supernatant was measured at 540 nm using optima spectrophotometer. The test carried out triplicate. Inhibition of hemolysis percentages were calculated. Inhibition of hemolysis activity was expressed as IC50.

A further assay has as its target T3, MAO-A (Homo sapiens, UniProt P21397).
T3 sequence (P21397 1-527): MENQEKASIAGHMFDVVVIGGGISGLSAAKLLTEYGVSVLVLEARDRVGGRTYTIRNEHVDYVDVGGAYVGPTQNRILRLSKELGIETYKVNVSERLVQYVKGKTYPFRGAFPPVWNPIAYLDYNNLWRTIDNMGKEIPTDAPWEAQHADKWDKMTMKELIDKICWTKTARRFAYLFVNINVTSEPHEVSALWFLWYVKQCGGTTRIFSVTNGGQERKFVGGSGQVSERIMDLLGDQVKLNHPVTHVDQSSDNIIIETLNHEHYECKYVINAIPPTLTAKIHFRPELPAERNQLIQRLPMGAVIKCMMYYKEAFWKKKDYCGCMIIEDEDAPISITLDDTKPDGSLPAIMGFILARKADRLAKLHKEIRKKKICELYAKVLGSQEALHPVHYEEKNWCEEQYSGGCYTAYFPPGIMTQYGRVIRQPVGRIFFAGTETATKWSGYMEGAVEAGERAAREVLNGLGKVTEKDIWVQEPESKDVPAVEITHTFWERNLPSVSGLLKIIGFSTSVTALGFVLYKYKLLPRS
Briefly: biochemical.

Setting [3] is: inhibition of induced HRBC membrane lysis, means of three replicates.

T2 sequence (P22303 32-614): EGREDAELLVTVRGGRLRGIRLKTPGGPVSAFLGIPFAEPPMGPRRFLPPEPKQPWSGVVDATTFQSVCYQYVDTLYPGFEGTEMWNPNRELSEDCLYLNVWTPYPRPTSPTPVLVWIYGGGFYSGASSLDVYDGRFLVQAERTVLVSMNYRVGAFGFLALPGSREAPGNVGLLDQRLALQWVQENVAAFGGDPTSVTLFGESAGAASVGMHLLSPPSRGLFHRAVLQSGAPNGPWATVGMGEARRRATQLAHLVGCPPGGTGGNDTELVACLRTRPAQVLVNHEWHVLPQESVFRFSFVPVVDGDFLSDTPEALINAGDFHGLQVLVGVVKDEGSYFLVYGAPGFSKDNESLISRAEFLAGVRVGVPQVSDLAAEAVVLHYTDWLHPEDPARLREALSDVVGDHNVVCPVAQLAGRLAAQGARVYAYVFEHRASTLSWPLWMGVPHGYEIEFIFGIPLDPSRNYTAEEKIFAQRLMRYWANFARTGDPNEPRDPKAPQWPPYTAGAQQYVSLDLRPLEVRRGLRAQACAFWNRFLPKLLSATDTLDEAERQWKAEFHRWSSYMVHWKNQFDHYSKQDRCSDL
Procedure for MAO-A: The MAO-B and MAO-A inhibitory potentials of all the synthesized 1,2,4-oxadiazole-based derivatives were evaluated. Biperiden and methylene blue (methylthioninium chloride) were used as the reference standards.
In test tube, 150 µL of 20 nM of MAO-A or MAO-B (M7441, Sigma), 150 µL of tested compound serial dilutions (0, 0.1,
0.25, 0.5,1 and 2 mg/mL), 133 µL potassium phosphate buffer and 667 µL of or benzylamine (5µM) were mixed well.
absorbance was measured at 250 nm against air after 30 s and 90 s. The Inhibition percentage was calculated.
inhibitory concentration at which 50% of MAO -A or MAO-B is repressed.

The IC50 is the concentration that inhibits the measured activity by half. On to `OC(CCN1CCCCC1)(c1ccccc1)C1CC2C=CC1C2` (stereo not shown) [Biperiden HCl, reference compound], for which the IC50 at MAO-B (means of three replicates, N.A. means no activity, read-out: MAO-B-IC50 (µM ± SD)) came out at 238 ± 16.3 µM.

For the compound `NNC(=O)COc1ccccc1-c1nc(-c2ccccc2)no1` [Compound 1a], the concentration for half-maximal inhibition (IC50) amounted to 1220 ± 51.3 µM in assay [1], 1620 ± 57.8 µM in assay [2] (setting [3]), 47.2 ± 8.1 µM against MAO-A and 359 ± 23.4 µM on MAO-B. Moreover, the “AChE-IC50 (µM ± SD)” value at AChE is “nonexistent efficacy”.

For `NNC(=O)COc1ccccc1-c1nc(Cc2ccccc2)no1` [Compound 1b], the half-maximal inhibitory concentration (IC50) in assay [1] worked out at 1280 ± 42.8 µM; on AChE, 0.031 ± 0.0024 µM; in assay [2] (setting [3]) it was 1190 ± 78.3 µM; at MAO-A, 82.5 ± 8.7 µM; against MAO-B, 535 ± 41.5 µM.

Consider `NNC(=O)COc1ccccc1-c1nc(-c2ccc(C(F)(F)F)cc2)no1` [Compound 1c], for which the 50% inhibitory concentration (IC50) was 735 ± 12.8 µM in assay [1], 657 ± 33.1 µM in assay [2] (setting [3]), 147 ± 16.9 µM on MAO-A and 397 ± 19.6 µM at MAO-B. The “AChE-IC50 (µM ± SD)” value at AChE is “nonexistent efficacy”.

With `O=C(COc1ccccc1-c1nc(-c2ccccc2)no1)N/N=C\c1ccccc1[N+](=O)[O-]` [Compound 2a, (E/Z)-N’-(2-Nitrobenzylidene)-2-(2-(3-phenyl-1,2,4-oxadiazol-5-yl)phenoxy)acetohydrazide], the concentration for half-maximal inhibition (IC50) in assay [1] worked out at 1310 ± 31.5 µM; at AChE it was 0.0339 ± 0.0029 µM; in assay [2] (setting [3]), 1790 ± 63.1 µM.

For the compound `O=C(COc1ccccc1-c1nc(Cc2ccccc2)no1)N/N=C\c1ccccc1[N+](=O)[O-]` [Compound 2b, (E/Z)-2-(2-(3-Benzyl-1,2,4-oxadiazol-5-yl)phenoxy)-N’-(2-nitrobenzylidene)acetohydrazide], the IC50 in assay [1] was 991 ± 11.4 µM; at AChE, 0.00098 ± 1e-06 µM; in assay [2] (setting [3]) it was 4100 ± 114 µM; against MAO-A, 204 ± 17.9 µM; at MAO-B it was 346 ± 14.3 µM. Besides, the “AChE Selectivity Index” value at AChE is given as 36,571.

As for `O=C(COc1ccccc1-c1nc(-c2ccc(C(F)(F)F)cc2)no1)N/N=C\c1ccccc1[N+](=O)[O-]` [Compound 2c, (E/Z)-N’-(2-Nitrobenzylidene)-2-(2-(3-(4-(trifluoromethyl)phenyl)-1,2,4-oxadiazol-5-yl)phenoxy) acetohydrazide], the concentration for half-maximal inhibition (IC50) in assay [1] was found to be 464 ± 31.5 µM; at AChE, 0.0127 ± 0.00102 µM; in assay [2] (setting [3]), 4340 ± 126 µM; at MAO-B, 266 ± 13.4 µM. For the same compound, the “AChE Selectivity Index” value at AChE is given as 3,100.

As for `O=C(COc1ccccc1-c1nc(-c2ccccc2)no1)N/N=C\c1cnn(-c2ccccc2)n1` [Compound 3a, (E/Z)-2-(2-(3-Phenyl-1,2,4-oxadiazol-5-yl)phenoxy)-N’-((2-phenyl-2 H-1,2,3-triazol-4-yl)methylene) acetohydrazide], at AChE, the “AChE-IC50 (µM ± SD)” value is on record as “nonexistent efficacy”. For the same compound, the figures for the IC50 (in assay [2] (setting [3]); on MAO-A) were 622 ± 23.4 µM and 85.2 ± 5.9 µM, respectively.

For `O=C(COc1ccccc1-c1nc(Cc2ccccc2)no1)N/N=C\c1cnn(-c2ccccc2)n1` [Compound 3b, (E/Z)-2-(2-(3-Benzyl-1,2,4-oxadiazol-5-yl)phenoxy)-N’-((2-phenyl-2 H-1,2,3-triazol-4-yl)methylene) acetohydrazide], the IC50 in assay [1] turned out to be 537 ± 19.3 µM; on AChE it was 0.0233 ± 0.00069 µM; in assay [2] (setting [3]), 457 ± 19.6 µM; on MAO-B, 140 ± 8.7 µM. The “AChE Selectivity Index” value at AChE turned out to be 735.

On to `O=C(COc1ccccc1-c1nc(-c2ccc(C(F)(F)F)cc2)no1)N/N=C\c1cnn(-c2ccccc2)n1` [Compound 3c, (E/Z)-N’-((2-Phenyl-2 H-1,2,3-triazol-4-yl)methylene)-2-(2-(3-(4-(trifluoromethyl)phenyl)-1,2,4-oxadiazol-5-yl)phenoxy)acetohydrazide], for which the IC50 in assay [1] worked out at 582 ± 42.9 µM; in assay [2] (setting [3]), 661 ± 23.8 µM; on MAO-A it was 115 ± 19.5 µM. The “AChE-IC50 (µM ± SD)” value at AChE is “nonexistent efficacy”.

With `O=C(COc1ccccc1-c1nc(-c2ccccc2)no1)NN1C(=O)c2ccccc2C1=O` [Compound 4a, N-(1,3-Dioxoisoindolin-2-yl)-2-(2-(3-phenyl-1,2,4-oxadiazol-5-yl)phenoxy)acetamide], the IC50 in assay [1] is 1660 ± 62.3 µM; on AChE, 0.0328 ± 0.0011 µM; in assay [2] (setting [3]) it was 522 ± 15.9 µM; against MAO-B it was 394 ± 16.3 µM. Further, the “AChE Selectivity Index” value at AChE is on record as 1,010.

Regarding `O=C(COc1ccccc1-c1nc(Cc2ccccc2)no1)NN1C(=O)c2ccccc2C1=O` [Compound 4b, 2-(2-(3-Benzyl-1,2,4-oxadiazol-5-yl)phenoxy)-N-(1,3-dioxoisoindolin-2-yl)acetamide], the concentration for half-maximal inhibition (IC50) in assay [1] came out at 2661 ± 26.3 µM; on AChE, 0.0293 ± 0.0013 µM; in assay [2] (setting [3]), 1790 ± 89.3 µM; at MAO-A, 130 ± 16.9 µM; against MAO-B, 713 ± 22.3 µM.

With `O=C(COc1ccccc1-c1nc(-c2ccc(C(F)(F)F)cc2)no1)NN1C(=O)c2ccccc2C1=O` [Compound 4c, N-(1,3-Dioxoisoindolin-2-yl)-2-(2-(3-(4-(trifluoromethyl)phenyl)-1,2,4-oxadiazol-5-yl)phenoxy)acetamide], on AChE, the “AChE Selectivity Index” value turned out to be 673. Moreover, the half-inhibitory concentration (IC50) at AChE was determined as 0.0377 ± 0.0027 µM; in assay [2] (setting [3]), 1040 ± 88.9 µM; against MAO-A it was 144 ± 22.4 µM; against MAO-B, 117 ± 9.8 µM.

As to `O=C(COc1ccccc1-c1nc(-c2ccccc2)no1)NNC(=O)c1ccc2ccccc2n1` [Compound 5a, N’-(2-(2-(3-Phenyl-1,2,4-oxadiazol-5-yl)phenoxy)acetyl)quinoline-2-carbohydrazide], the IC50 in assay [1] turned out to be 885 ± 22.9 µM; at AChE, 0.0475 ± 0.0028 µM; in assay [2] (setting [3]) it was 2020 ± 111 µM; on MAO-B, 274 ± 21.1 µM.

For `O=C(COc1ccccc1-c1nc(Cc2ccccc2)no1)NNC(=O)c1ccc2ccccc2n1` [Compound 5b, N’-(2-(2-(3-Benzyl-1,2,4-oxadiazol-5-yl)phenoxy)acetyl)quinoline-2-carbohydrazide], at AChE, the “AChE Selectivity Index” value is 627 and the IC50 came out at 0.0337 ± 0.00089 µM. Besides, the IC50 in assay [2] (setting [3]) is 3560 ± 125 µM.

On to `O=C(COc1ccccc1-c1nc(-c2ccc(C(F)(F)F)cc2)no1)NNC(=O)c1ccc2ccccc2n1` [Compound 5c, N’-(2-(2-(3-(4-(Trifluoromethyl)phenyl)-1,2,4-oxadiazol-5-yl)phenoxy)acetyl)quinoline-2-carbohydrazide], for which the IC50 in assay [1] was found to be 1140 ± 68.9 µM; on AChE, 0.0792 ± 0.0061 µM; in assay [2] (setting [3]) it was 521 ± 11.9 µM. Besides, the “AChE Selectivity Index” value at AChE was 894.

For `O=C(O)Cc1ccccc1Nc1c(Cl)cccc1Cl` [Diclofenac, reference compound], in assay [2], the IC50 turned out to be 1120 ± 12.6 µM.

Consider `O=c1c(O)c(-c2ccc(O)c(O)c2)oc2cc(O)cc(O)c12` [Quercetin, reference compound], for which, in assay [1], the 50% inhibitory concentration (IC50) was found to be 491 ± 14.8 µM.
